Test results reported in US10138255B2, “Piperazine derivatives as HIV protease inhibitors” (Merck Sharp & Dohme Corp., priority 2014, dated 2018).

system: HIV-1 (H9IIIB strain); assay: Cell-Based HIV Infection Assay Using a Reporter (MT4-GFP cells); details: Human immunodeficiency virus 1, inflection point (IP) of viral growth inhibition; MT4-GFP cells infected with HIV-1 H9IIIB; 50% normal human serum; mean of at least two independent experiments; read-out: Cell Based IP (50% NHS)
Description: Cell-Based HIV Infection Assay Using a Reporter (“Cell-Based”):
MT4-GFP cells contain a stably integrated HIV long terminal repeat promoter directing the transcription of green fluorescent protein (GFP). When HIV infects the cell, GFP is produced and the cell becomes green. MT4-GFP cells (250,000 cells/mL) were bulk-infected with HIV-1 (H9IIIB strain) at low multiplicity of infection (MOI) in RPM 1640 media, supplemented with 10% FBS for 24 h. Cells were then washed once in RPMI 1640 plus 10% FBS and resuspended in RPMI plus 50% normal human serum (NHS). Test compounds were serial-diluted in DMSO using an ECHO liquid dispenser. A control well included a combination of three HIV drugs (an inhibitor of HIV protease, integrase strand transfer and a non-nucleoside reverse transcriptase inhibitor; triple drug). The infected MT4-GFP cells were added to a 384-well poly-D-lysine coated black plate with clear bottom in which the diluted test compounds were placed. The cells were seeded in the plate at 8,000 cells per well and the final DMSO concentration was 0.4%. Infected cells were quantified at both 24 and 48 h post incubation using an Acumen eX3 plate reader. Viral reproductive ratio (R0) was determined using the number of infected cells at 48 h divided by the number of infected cells at 24 h. Percent viral growth inhibition was calculated by [1−(R−Rtripledrug)/(RDMSO−Rtripledrug)]*100. Compound potency inflection point (IP) was determined with use of a 4-parameter dose response curve analysis.
Data shown in the table reflects the mean of at least two independent experiments.

Question: How did the EC50 turn out when `COC(=O)N[C@H](C(=O)Nc1cccc(F)c1CC[C@H]1CN[C@@H]2CCCS(=O)(=O)N1C2)[C@@H](c1ccc(Cl)c(F)c1)C1C[C@@H](C)O[C@@H](C)C1` (stereo partly drawn) [Example 16, Methyl {(1S,2R)-2-(4-chloro-3-fluorophenyl)-2-[(2R,6S)-2,6-dimethyltetrahydro-2H-pyran-4-yl]-1-[(2-{2-[(6R,9S)-2,2-dioxido-2-thia-1,7-diazabicyclo[4.3.1]dec-9-yl]ethyl}-3-fluorophenyl)carbamoyl]ethyl}carbamate] was run?
Answer: Its EC50 is 0.0049 µM.

Question: Which EC50 does the source give for `CC(C)Oc1cc([C@H](c2ccc(Cl)cc2)[C@H](N)C(=O)Nc2cccc(F)c2CCC2CNC3CCCS(=O)(=O)N2C3)ccn1` (stereo partly drawn) [Example 17, (βS)-4-Chloro-N-{2-[2-(2,2-dioxido-2-thia-1,7-diazabicyclo[4.3.1]dec-9-yl)ethyl]-3-fluorophenyl}-β-[2-(1-methylethoxy)pyridin-4-yl]-L-phenylalaninamide] here?
Answer: Its EC50 is 0.0089 µM.

Question: Which EC50 does the source give for `COC(=O)N[C@H](C(=O)Nc1cccc(F)c1CCC1CNC2CCCS(=O)(=O)N1C2)[C@@H](c1ccc(Cl)cc1)c1ccnc(C(F)(F)F)c1` (stereo partly drawn) [Example 18, Methyl {(1S,2S)-2-(4-chlorophenyl)-1-({2-[2-(2,2-dioxido-2-thia-1,7-diazabicyclo[4.3.1]dec-9-yl)ethyl]-3-fluorophenyl}carbamoyl)-2-[2-(trifluoromethyl)pyridin-4-yl]ethyl}carbamate] here?
Answer: Its EC50 is 0.0087 µM.

Question: `COC(=O)N[C@H](C(=O)Nc1cccc(F)c1CCC1CNC2CCCS(=O)(=O)N1C2)[C@H](c1cncc(C(F)(F)F)c1)c1ccc(Cl)c(F)c1` (stereo partly drawn) [Example 19, Methyl {(1S,2S)-2-(4-chloro-3-fluorophenyl)-1-({2-[2-(2,2-dioxido-2-thia-1,7-diazabicyclo[4.3.1]dec-9-yl)ethyl]-3-fluorophenyl}carbamoyl)-2-[5-(trifluoromethyl)pyridin-3-yl]ethyl}carbamate] was tested. Which EC50 did it give?
Answer: The EC50 was 0.0052 µM.

Question: For `CC(F)(F)c1cncc([C@H](c2ccc(Cl)cc2)[C@H](N)C(=O)Nc2cccc(F)c2CCC2CNC3CCCS(=O)(=O)N2C3)c1` (stereo partly drawn) [Example 20, (βS)-4-Chloro-β-[5-(1,1-difluoroethyl)pyridin-3-yl]-N-{2-[2-(2,2-dioxido-2-thia-1,7-diazabicyclo[4.3.1]dec-9-yl)ethyl]-3-fluorophenyl}-L-phenylalaninamide], which EC50 is on record?
Answer: The EC50 was 0.011 µM.

Question: With `COC(=O)N[C@H](C(=O)Nc1cccc(F)c1CCC1CNC2CCCS(=O)(=O)N1C2)[C@@H](c1ccc(Cl)cc1)c1ccc(C(F)(F)F)nc1` (stereo partly drawn) [Example 21, Methyl {(1S,2S)-2-(4-chlorophenyl)-1-({2-[2-(2,2-dioxido-2-thia-1,7-diazabicyclo[4.3.1]dec-9-yl)ethyl]-3-fluorophenyl}carbamoyl)-2-[6-(trifluoromethyl)pyridin-3-yl]ethyl}carbamate] as the compound, how does the EC50 read?
Answer: The EC50 was 0.005 µM.

Question: For `COC(=O)N[C@H](C(=O)Nc1cccc(F)c1CC[C@H]1CN[C@@H]2CCCS(=O)(=O)N1C2)[C@@H](c1ccc(F)cc1)c1cnc(C(F)(F)F)nc1` [Example 22, Methyl [(1S)-2-[(2-{2-[(6R,9S)-2,2-dioxido-2-thia-1,7-diazabicyclo[4.3.1]dec-9-yl]ethyl}-3-fluorophenyl)amino]-1-{(S)-(4-fluorophenyl)[2-(trifluoromethyl)pyrimidin-5-yl]methyl}-2-oxoethyl]carbamate], which EC50 is on record?
Answer: Its EC50 is 0.015 µM.

Question: How did the EC50 turn out when `CC(C)Oc1ncc([C@H](c2ccc(F)cc2)[C@H](N)C(=O)Nc2cccc(F)c2CC[C@H]2CN[C@@H]3CCCS(=O)(=O)N2C3)cn1` [Example 23, (βS)—N-(2-{2-[(6R,9S)-2,2-Dioxido-2-thia-1,7-diazabicyclo[4.3.1]dec-9-yl]ethyl}-3-fluorophenyl)-4-fluoro-β-[2-(1-methylethoxy)pyrimidin-5-yf]-L-phenylalaninamide] was run?
Answer: The EC50 was 0.0093 µM.

Question: How did the EC50 turn out when `N[C@H](C(=O)N[C@H]1CCCC[C@@H]1CC[C@H]1CN[C@@H]2CCCS(=O)(=O)N1C2)[C@@H](c1ccc(Cl)cc1)C1CCOCC1` [Example 24, (βR)-4-Chloro-N-[(1S,2R)-2-{2-[(6R,9S)-2,2-dioxido-2-thia-1,7-diazabicyclo[4.3.1]dec-9-yl]ethyl}cyclohexyl]-β-(tetrahydro-2H-pyran-4-yl)-L-phenylalaninamide] was run?
Answer: The EC50 was 0.013 µM.

Question: Which EC50 does the source give for `COC(=O)N[C@H](C(=O)N[C@H]1CCCC[C@@H]1CC[C@H]1CN[C@@H]2CCCS(=O)(=O)N1C2)[C@@H](c1ccc(Cl)cc1)C1CCOCC1` [Example 25, Methyl [(1S,2R)-2-(4-chlorophenyl)-1-{[(1S,2R)-2-{2-[(6R,9S)-2,2-dioxido-2-thia-1,7-diazabicyclo[4.3.1]dec-9-yl]ethyl}cyclohexyl]carbamoyl}-2-(tetrahydro-2H-pyran-4-yl)ethyl]carbamate] here?
Answer: Its EC50 is 0.041 µM.

Question: For `COC(=O)N[C@H](C(=O)Nc1ccc(F)c(F)c1CC[C@H]1CN[C@@H]2CCCS(=O)(=O)N1C2)[C@@H](c1ccc(F)cc1)[C@H]1CC[C@H](OC)CC1` [Example 26, Methyl ((2S,3R)-1-((2-(2-((6R,9S)-2,2-dioxido-2-thia-1,7-diazabicyclo[4.3.1]decan-9-yl)ethyl)-3,4-difluorophenyl)amino)-3-(4-fluorophenyl)-3-((1r,4R)-4-methoxycyclohexyl)-1-oxopropan-2-yl)carbamate], which EC50 is on record?
Answer: Its EC50 is 0.011 µM.

Question: Which EC50 does the source give for `CO[C@H]1CC[C@H]([C@H](c2ccc(F)cc2)[C@H](N)C(=O)Nc2cncc(F)c2CC[C@H]2CN[C@@H]3CCCS(=O)(=O)N2C3)CC1` [Example 27, (2S,3R)-2-Amino-N-(4-(2-((6R,9S)-2,2-dioxido-2-thia-1,7-diazabicyclo[4.3.1]decan-9-yl)ethyl)-5-fluoropyridin-3-yl)-3-(4-fluorophenyl)-3-((1r,4R)-4-methoxycyclohexyl)propanamide] here?
Answer: Its EC50 is 0.0075 µM.

Question: Which EC50 does the source give for `COC(=O)N[C@H](C(=O)Nc1ccc(F)c(F)c1CC[C@H]1CN[C@@H]2CCCS(=O)(=O)N1C2)[C@@H](c1ccc(F)cc1)C1CCOC(C)(C)C1` (stereo partly drawn) [Example 28, Methyl [(1S,2R)-2-(2,2-dimethyltetrahydro-2H-pyran-4-yl)-1-[(2-{2-[(6R,9S)-2,2-dioxido-2-thia-1,7-diazabicyclo[4.3.1]dec-9-yl]ethyl}-3,4-difluorophenyl)carbamoyl]-2-(4-fluorophenyl)ethyl]carbamate] here?
Answer: The EC50 was 0.013 µM.

Question: `COC(=O)N[C@H](C(=O)N[C@H]1CCC[C@@H]1CC[C@H]1CN[C@@H]2CCCS(=O)(=O)N1C2)[C@@H](c1ccc(Cl)cc1)C1CCOC(C)(C)C1` (stereo partly drawn) [Example 29, Methyl [(1S,2R)-2-(4-chlorophenyl)-2-(2,2-dimethyltetrahydro-2H-pyran-4-yl)-1-{[(1S,2R)-2-{2-[(6R,9S)-2,2-dioxido-2-thia-1,7-diazabicyclo[4.3.1]dec-9-yl]ethyl}cyclopentyl]carbamoyl}ethyl]carbamate] was tested. Which EC50 did it give?
Answer: The EC50 was 0.023 µM.

Question: With `COC(=O)N[C@H](C(=O)Nc1cc(F)ccc1CC[C@H]1CN[C@@H]2CCCS(=O)(=O)N1C2)[C@@H](c1ccc(F)cc1)C1C[C@@H](C)O[C@@H](C)C1` (stereo partly drawn) [Example 30, Methyl [(1S,2R)-2-[(2R,6S)-2,6-dimethyltetrahydro-2H-pyran-4-yl]-1-[(2-{2-[(6R,9S)-2,2-dioxido-2-thia-1,7-diazabicyclo[4.3.1]dec-9-yl]ethyl}-5-fluorophenyl)carbamoyl]-2-(4-fluorophenyl)ethyl]carbamate] as the compound, how does the EC50 read?
Answer: The EC50 was 0.01 µM.

Question: Which EC50 does the source give for `C[C@@H]1C[C@H]([C@H](c2ccc(Cl)cc2)[C@H](N)C(=O)Nc2cncc(F)c2CC[C@H]2CN[C@@H]3CCCS(=O)(=O)N2C3)C[C@H](C)O1` [Example 31, (2S,3R)-2-Amino-3-(4-chlorophenyl)-3-((2R,4r,6S)-2,6-dimethyltetrahydro-2H-pyran-4-yl)-N-(4-(2-((6R,9S)-2,2-dioxido-2-thia-1,7-diazabicyclo[4.3.1]decan-9-yl)ethyl)-5-fluoropyridin-3-yl)propanamide] here?
Answer: The EC50 was 0.0063 µM.

Question: How did the EC50 turn out when `COC(=O)N[C@H](C(=O)Nc1c(F)ccc(F)c1CC[C@H]1CN[C@@H]2CCCS(=O)(=O)N1C2)[C@@H](c1ccc(Cl)cc1)C1CCOCC1` [Example 32, Methyl [(1S,2R)-2-(4-chlorophenyl)-1-[(2-{2-[(6R,9S)-2,2-dioxido-2-thia-1,7-diazabicyclo[4.3.1]dec-9-yl]ethyl}-3,6-difluorophenyl)carbamoyl]-2-(tetrahydro-2H-pyran-4-yl)ethyl]carbamate] was run?
Answer: Its EC50 is 0.02 µM.

Question: For `N[C@H](C(=O)Nc1cccc(F)c1CCC1CNC2CCCS(=O)(=O)N1C2)[C@@H](c1ccc(F)cc1)c1ccc(C(F)(F)F)cc1` (stereo partly drawn) [Example 33, (βR)—N-{2-[2-(2,2-Dioxido-2-thia-1,7-diazabicyclo[4.3.1]dec-9-yl)ethyl]-3-fluorophenyl}-β-(4-fluorophenyl)-4-(trifluoromethyl)-L-phenylalaninamide], which EC50 is on record?
Answer: Its EC50 is 0.0085 µM.

Question: How did the EC50 turn out when `COC(=O)N[C@H](C(=O)Nc1cccc(F)c1CCC1CNC2CCCS(=O)(=O)N1C2)[C@@H](c1ccc(F)cc1)c1ccc2c(c1)CCC2` (stereo partly drawn) [Example 34, Methyl [(1S,2S)-2-(2,3-dihydro-1H-inden-5-yl)-1-({2-[2-(2,2-dioxido-2-thia-1,7-diazabicyclo[4.3.1]dec-9-yl)ethyl]-3-fluorophenyl}carbamoyl)-2-(4-fluorophenyl)ethyl]carbamate] was run?
Answer: Its EC50 is 0.023 µM.
